The assay deals with T1, human TRPM2 (hTRPM2) channel (Homo sapiens, UniProt O94759).
T1 construct: expressed in transfected cells; host or cells: HEK293 cells with tetracycline-inducible expression of hTRPM2 (HEK-hTRPM2)
The experiment in a line: Single-channel outside-out recordings from HEK-hTRPM2 cells. It is filed as cell-based. Conditions: FFA co-application, n = 12. As to the method:
Human embryonic kidney 293 (HEK293) cells with tetracycline-inducible expression of human TRPM2 channel (hTRPM2) were cultured in a mixed medium containing DMEM/ F-12 (Gibco, USA) and 10% fetal bovine serum (Gibco, USA) as well as blasticidin (50 μg/ml, Invivogen, USA) and zeocin (0.4 mg/ml, Invivogen, USA). The expression of hTRPM2 was induced by substituting blasticin and zeocin for tetracycline (1 μg/ml, Sigma, USA) 24-48 hours before use. TRPM2 channel mutants were transiently expressed in HEK293T cells by transfection with using Lipofectamine 3000. Briefly, HEK293T cells were transiently transfected with cDNAs encoding the mutant hTRPM2 channel. The cDNA for GFP was co-transfected as a marker for identification of the transfected cells for electrophysiological experiments 16-24 hours after transfection. All the cells were seeded on 96-well coverslips (3 x 3 mm, WHB) and cultured at 37 °C under a humidified atmosphere containing 5% CO2.
Coronal cortical slices were transferred into the recording chamber and continuously perfused at room temperature with ACSF oxygenated with 95% O2 and 5% CO2. Cortical pyramidal neurons were visualized by an upright microscope (Carl Zeiss) equipped with a CCD monochrome video camera (IR-1000, DAGE-MTI) and identified by their localization in Layer V. Electrophysiology data were sampled (50 kHz) and lowpass filtered (5kHz four-pole Bessel filter) by a MultiClamp 700B dual channel amplifier (Molecular Devices). The patch electrodes were pulled from borosilicate capillary glass (1.5 mm outer diameter; 0.86 mm inner diameter; World Precision Instruments, USA) with a horizontal multi-step micropipette puller (Model, P-1000, Sutter Instrument). […] After forming >1 GΩ resistance seal in cell-attached configuration, we broke the patch membrane and kept the neurons at -64 mV and then performed whole-cell current-clamp recordings. Cells requiring holding current > -150 pA at -60 mV were discarded. The resting membrane potential (Vrest) was tested in I = 0 configuration. […] For whole-cell or single channel recordings from transfected HEK-293T cells, the coverslips were placed in a culture dish (35 × 35 mm, Sorfa) containing HEPES based extracellular solution (ECS) and recorded by patch-clamp technique. […] Each coverslip was recorded only once with different drug exposures. […] The excised patches were voltage-clamped from -80 mV to +80 mV (in 20 mV increasement) to generate the current-voltage (I-V) relationship of single channel currents from which their main conductance was calculated from the slope by linear regression of the mean current amplitude at different potentials. […]

T1 sequence (O94759 whole entry): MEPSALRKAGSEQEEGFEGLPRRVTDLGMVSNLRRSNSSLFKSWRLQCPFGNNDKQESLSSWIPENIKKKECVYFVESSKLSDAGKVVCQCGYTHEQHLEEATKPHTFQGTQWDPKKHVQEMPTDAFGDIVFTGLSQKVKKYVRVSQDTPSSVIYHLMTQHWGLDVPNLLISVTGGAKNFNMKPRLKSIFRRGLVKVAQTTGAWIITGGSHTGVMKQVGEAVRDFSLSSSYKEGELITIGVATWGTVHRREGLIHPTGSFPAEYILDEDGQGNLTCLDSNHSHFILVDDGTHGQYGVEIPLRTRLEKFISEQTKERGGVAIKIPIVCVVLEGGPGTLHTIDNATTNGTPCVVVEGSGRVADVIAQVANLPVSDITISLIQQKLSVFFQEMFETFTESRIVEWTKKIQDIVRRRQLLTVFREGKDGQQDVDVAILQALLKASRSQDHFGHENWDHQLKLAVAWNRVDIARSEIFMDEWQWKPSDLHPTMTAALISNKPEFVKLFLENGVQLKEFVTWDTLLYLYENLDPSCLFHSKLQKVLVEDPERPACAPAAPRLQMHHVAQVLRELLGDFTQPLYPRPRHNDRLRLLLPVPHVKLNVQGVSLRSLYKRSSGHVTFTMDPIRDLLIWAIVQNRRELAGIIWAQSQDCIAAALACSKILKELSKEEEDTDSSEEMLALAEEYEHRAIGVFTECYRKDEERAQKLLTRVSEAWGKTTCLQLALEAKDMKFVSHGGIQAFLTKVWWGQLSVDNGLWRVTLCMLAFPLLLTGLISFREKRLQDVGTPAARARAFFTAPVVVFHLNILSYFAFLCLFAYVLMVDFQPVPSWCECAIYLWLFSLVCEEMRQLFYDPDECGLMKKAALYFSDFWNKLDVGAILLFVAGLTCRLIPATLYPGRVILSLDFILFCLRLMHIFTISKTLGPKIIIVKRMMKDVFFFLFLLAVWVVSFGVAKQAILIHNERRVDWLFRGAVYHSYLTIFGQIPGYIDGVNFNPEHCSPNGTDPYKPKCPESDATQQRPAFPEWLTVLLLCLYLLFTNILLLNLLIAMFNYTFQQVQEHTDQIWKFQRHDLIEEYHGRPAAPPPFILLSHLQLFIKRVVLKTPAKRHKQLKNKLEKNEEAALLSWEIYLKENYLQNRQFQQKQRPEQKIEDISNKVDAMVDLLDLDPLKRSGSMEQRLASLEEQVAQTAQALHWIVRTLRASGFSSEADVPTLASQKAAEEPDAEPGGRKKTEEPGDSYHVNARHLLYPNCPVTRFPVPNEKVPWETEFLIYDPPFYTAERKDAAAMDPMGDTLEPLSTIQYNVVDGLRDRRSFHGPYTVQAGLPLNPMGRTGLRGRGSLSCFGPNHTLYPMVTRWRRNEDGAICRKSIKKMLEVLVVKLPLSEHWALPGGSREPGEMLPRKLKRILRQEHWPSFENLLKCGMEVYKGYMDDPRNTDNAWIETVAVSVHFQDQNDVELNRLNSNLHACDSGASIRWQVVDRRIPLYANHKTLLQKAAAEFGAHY

For the molecule `O=C(O)c1ccccc1Nc1cccc(C(F)(F)F)c1` [FFA, flufenamic acid], the “bilirubin-increased opening probability (Po)” value is on record as “reversed”.
